Data: PubChem BioAssay (NCI)
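Where inhibition never reached the appropriate level, the endpoint shown equals the highest concentration tested. Otherwise, values were interpolated linearly from a five-concentration, 48-hour dose response in 96-well plates. TGI: concentration producing complete growth inhibition.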

Columns and labels:
Experiment in all cases: inhibition of tumour cell growth, NCI panel, 48 h
786-0 renal = tested on: 786-0 renal
EKVX NSCLC = tested on: EKVX NSCLC
HCT-116 colon = tested on: HCT-116 colon
HOP-62 NSCLC = tested on: HOP-62 NSCLC
IGROV1 ovarian = tested on: IGROV1 ovarian
KM12 colon = tested on: KM12 colon
LOX IMVI melanoma = tested on: LOX IMVI melanoma
M14 melanoma = tested on: M14 melanoma
OVCAR-3 ovarian = tested on: OVCAR-3 ovarian
OVCAR-4 ovarian = tested on: OVCAR-4 ovarian
OVCAR-8 ovarian = tested on: OVCAR-8 ovarian
SF-268 CNS = tested on: SF-268 CNS
SF-295 CNS = tested on: SF-295 CNS
SF-539 CNS = tested on: SF-539 CNS
SNB-19 CNS = tested on: SNB-19 CNS
SNB-75 CNS = tested on: SNB-75 CNS
TK-10 renal = tested on: TK-10 renal
UO-31 renal = tested on: UO-31 renal
T-47D breast = tested on: T-47D breast
MDA-N = tested on: MDA-N

| SMILES | TGI (786-0 renal) [µM] | TGI (EKVX NSCLC) [µM] | TGI (HCT-116 colon) [µM] | TGI (HOP-62 NSCLC) [µM] | TGI (IGROV1 ovarian) [µM] | TGI (KM12 colon) [µM] | TGI (LOX IMVI melanoma) [µM] | TGI (M14 melanoma) [µM] | TGI (OVCAR-3 ovarian) [µM] | TGI (OVCAR-4 ovarian) [µM] | TGI (OVCAR-8 ovarian) [µM] | TGI (SF-268 CNS) [µM] | TGI (SF-295 CNS) [µM] | TGI (SF-539 CNS) [µM] | TGI (SNB-19 CNS) [µM] | TGI (SNB-75 CNS) [µM] | TGI (TK-10 renal) [µM] | TGI (UO-31 renal) [µM] | TGI (T-47D breast) [µM] | TGI (MDA-N) [µM] |
| --- | --- | --- | --- | --- | --- | --- | --- | --- | --- | --- | --- | --- | --- | --- | --- | --- | --- | --- | --- | --- |
| CC(CN(C)C)C(=O)c1ccccc1 (configuration not stated) | > 52.3 | > 79 | > 53 | > 100 | > 100 | > 51.5 | 31.7 | > 55 | 97.8 | > 55.5 | > 91.2 | 85 | > 100 | > 100 | > 100 | > 100 | > 100 | > 31.6 |  |  |
| NC1Cc2ccccc2OC1=O (configuration not stated) | > 100 | > 100 |  | > 100 | > 100 | > 100 |  | > 100 | > 100 |  | > 100 | > 100 | > 100 | > 100 | > 100 | > 100 | > 100 | > 100 | > 100 |  |
| CCOC(=O)c1c(N2CCCC2)ncn(C)c1=S | > 100 | > 100 | > 100 | > 100 | > 100 | > 100 | > 100 | > 100 | > 100 | > 100 | > 100 | > 100 | > 100 | > 100 | > 100 |  | > 100 | > 100 | > 100 |  |
| N#CCN(CC#N)C1CC=CCC1N(CC#N)CC#N (configuration not stated) | > 100 | > 100 | > 100 | > 100 | > 100 | > 100 | > 100 | > 100 | > 100 | > 100 | > 100 | > 100 | > 100 | > 100 | > 100 |  | > 100 | > 100 | > 100 | > 100 |
| O=C(Nc1nnc(-c2c(Cl)c(Cl)c(Cl)c(Cl)c2-c2nc3cc(C(=O)c4ccccc4)ccc3[nH]2)o1)c1ccc(Cl)cc1 | > 100 | > 100 | > 100 | 67.5 | > 100 | > 100 | > 100 | > 100 | 54.1 | > 100 | > 100 |  | 42.4 | > 100 | > 100 | > 100 | > 100 | > 100 | > 100 | 54.2 |
| CCn1c(=O)c2nc(SC)sc2n(-c2ccccc2)c1=O | > 100 |  | > 100 | > 100 | > 100 | > 100 | > 100 | > 100 | > 100 | > 100 | > 100 | > 100 | > 100 | > 100 | > 100 | > 100 | > 100 | 56.4 | > 100 | > 100 |
| COc1cc(C2c3cc4c(cc3[C@@H](Oc3ccc(F)cc3)C3COC(=O)[C@H]23)OCO4)cc(OC)c1O (some centres not stated) |  | > 100 | > 100 | 0.95 | > 100 | 27.9 | > 100 |  | 72.3 | > 100 | > 100 | > 100 | > 60 |  |  |  |  | > 100 |  |  |
| CCC(O)c1ccc(N=Cc2ccccc2O)cc1 (configuration not stated) | > 100 | > 100 | > 100 | > 100 | > 100 | > 100 | > 100 | > 100 | > 100 | > 100 |  | > 100 | > 100 | > 100 | > 100 | > 100 | > 100 | > 100 | > 100 |  |
| COC1CCC(=O)N1CN(C(C)=O)c1ccc(C)cc1 (configuration not stated) | > 100 |  | > 100 | > 100 |  | > 100 | > 100 | > 100 | > 100 | > 100 | > 100 | > 100 | > 100 | > 100 | > 100 | > 100 | > 100 | > 100 | > 100 | > 100 |
| CC[C@H](C)C1=C(O)[N@+]2([O-])Oc3ccc(-c4c(O)c(O)c(-c5ccc(O)cc5)c(OC(C)=O)c4OC(C)=O)cc3O[C@]2([C@@H](C)CC)C(=O)N1O | > 50 | > 50 | 20.2 | > 50 | 28.2 | > 50 | > 50 | > 50 | > 50 | 36.2 | > 50 | > 50 | > 50 | > 50 | > 50 |  | > 50 | > 50 | > 50 | > 50 |
| CN1C(=O)CC2CCC(=O)N2c2cccnc21 (configuration not stated) | > 100 | > 100 | > 100 | > 100 | > 100 | > 100 | > 100 | > 100 | > 100 | > 100 | > 100 | > 100 | > 100 | > 100 | > 100 |  | > 100 | > 100 | > 100 | > 100 |
| O=C(O)c1ccc(Nc2nc3cc(C(F)(F)F)ccc3n3cccc23)cc1 | 65.5 | > 100 | 68.2 | > 100 | > 100 | > 100 | 30.5 | 80.5 | > 100 |  | > 100 | > 100 | > 100 | 74.6 | > 100 | 81 | > 100 | > 100 | 70.4 | > 100 |
| COc1ccc(C2C3CCCC(C3=O)C(c3ccc(OC)cc3)N2N=O)cc1 (configuration not stated) |  | 99.6 | > 74.9 | > 86.5 | 97.5 | > 74.1 | 32.5 |  | 20 | 45 | > 100 | > 100 | 45.8 |  | > 91.2 | 62.4 |  | > 100 |  |  |
| CC1C2=C(CCCC2=O)N(c2ccc(Cl)cc2)C2=C1C(=O)CCC2 | > 100 | > 100 |  |  | > 100 | > 100 | > 100 | > 100 | > 100 | > 100 | > 100 | > 100 |  | > 100 | > 100 | > 100 | > 100 | > 100 |  |  |
| COC(=O)/C=C(\S/C=C(/c1ccccc1)N1CCn2c(C(=O)c3ccccc3)c(C(=O)OC)c(C(=O)OC)c21)C(=O)OC | 3.19 | > 10 | 5 | 5.02 | > 10 | > 10 | 4.28 | 5.83 | 2.87 | 6.57 | 3.21 |  | > 10 | 3.74 | > 10 | > 10 | 5.61 |  | 5.91 | > 10 |
| CCCN1C(=O)/C(=C\c2ccc(OC)c(OC)c2)SC1=Nc1ccccc1 | > 100 | > 100 | > 100 | 98.5 | > 100 | > 100 | > 100 | > 100 | > 100 | > 100 | > 100 | > 100 | > 100 | > 100 | > 100 |  | 74.1 | > 100 | > 100 | > 100 |
| CC1(C)CCCCCC(C)(CCCO)C1=O (configuration not stated) | > 100 | > 100 | > 100 | > 100 | > 100 | > 100 | > 100 | > 100 | > 100 | > 100 | > 100 | > 100 | > 100 |  | > 100 | > 100 |  | > 100 | > 100 |  |
| CC1(C)CC(=O)c2c(nc3c(ccc4ccccc43)c2-c2ccc(NC(=O)CCCCC(=O)Nc3ccc(-c4c5c(nc6c4ccc4ccccc46)CC(C)(C)CC5=O)cc3)cc2)C1 | > 100 | 67.5 | 74.6 | > 100 | 37.5 | 42.2 | 33.3 | > 100 | 80.8 |  | 98.4 | > 100 | 41.6 | 46.6 | > 100 | 53.1 | > 100 | 74.1 | > 100 | 68.3 |
| COc1ccc2c3c([nH]c2c1)CCN(Cc1ccccc1)C3 |  | > 100 | > 100 | 80.2 | > 100 | 70.5 | 38 | 34.8 |  | > 100 | > 100 | > 100 | 28.2 | 32.7 | 44.3 | > 100 | 65.1 | 39.6 | 69.1 |  |
| COc1ccc2nc3n(c2c1)C(=O)c1ccccc1-3 | > 100 | > 100 | > 100 | > 100 | > 100 | > 100 |  | > 100 | > 100 | > 100 | > 100 | > 100 | > 100 | > 100 | > 100 | > 100 | > 100 | > 100 |  | > 100 |
| CC(C)(C)OC(=O)Cn1ncn(NC(=O)Cc2ccccc2)c1=O | > 10 | > 10 | > 10 | > 10 | > 10 | > 10 | > 10 | > 10 | > 10 | > 10 | > 10 | > 10 | > 10 | > 10 | > 10 |  | > 10 | > 10 | > 10 | > 10 |
| COc1nc2c(c(=O)n1C)N=C(c1ccc(Cl)cc1)CC(c1ccccc1)N2 (configuration not stated) | > 100 | 69.2 | 63.5 | > 100 | 51.5 | 33.8 | 52.2 | > 100 | > 100 | 48.5 | > 100 |  | 57.6 | 31.5 | > 100 | 46.7 |  | > 100 |  | 37.8 |
| CC(=O)C(=[N+]=[N-])C(=O)N(C)CCC#N | > 10 | > 10 | > 10 | > 10 | > 10 | > 10 | > 10 | > 10 | > 10 |  | > 10 | > 10 | > 10 | > 10 | > 10 | 3.39 | > 10 | > 10 | > 10 | > 10 |
| CNC(=O)OC(COC)CN1CCN(c2ccccc2C)CC1 (configuration not stated) | > 10 | > 10 | > 10 | > 10 | > 10 | > 10 | > 10 | > 10 | > 10 | > 10 | > 10 | > 10 | > 10 | > 10 | > 10 | > 10 | > 10 | > 10 | > 10 |  |
| Cc1ccc2[nH]c3[nH]c(=S)[nH]c(=O)c3c2c1 | > 100 | > 100 | > 100 | > 100 | > 100 | > 100 | > 100 | > 100 | > 100 |  | > 100 | > 100 | > 100 | > 100 | > 100 | > 100 | > 100 | > 100 | > 100 | > 100 |
| NC(=Nc1cccc(Cl)c1)c1ccccc1N | > 100 | > 100 | > 100 | > 100 | > 100 | > 100 | > 100 | > 100 | > 100 | > 100 | > 100 | > 100 | > 100 |  | > 100 | > 100 | > 100 | > 100 |  | > 100 |
